The first experiment deals with purified rat T cells. As to the kind of experiment: Concanavalin A activated T-cell proliferation assay ([3H] thymidine uptake). Type of experiment: cell-based. Conditions: 96 h, @ 1 mM, Table 1, read-out: Thymidine Uptake (% Reduction @ 1 mM). As to the method: Compounds of Formula I (above), based on an ethyl dimethylaminopropylurea (1) parent structure, have been discovered as active agents against a modified Concanavalin A activated T-cell proliferation assay using purified rat T-cells. These cells were incubated for 4 days and pulsed with [^3H] thymidine for the last 16 hrs of incubation. [^3H] Thymidine uptake was measured as the mean counts per minute (cpm) of duplicate experimental cultures. The compounds of the present invention were discovered by screening a compound library. (directed analogs of parent compound 1) using an assay designed to identify inhibitors of Concanavalin A stimulated T-cell proliferation. Normal dermal fibroblasts and kidney epithelial cell toxicity assays were run on active compounds to eliminate non-selective cytotoxic compounds.
Consider `CCNC(=O)NCc1ccco1` [Compound 2], for which the inhibition at 1000 µM stood at 16%. On the same count and under the same terms, in the case of `CCNC(=O)NCC1CCCO1` (centres unmarked) [Compound 3] it was 26%. Same read-out and setting: the same measure for `CCNC(=O)NCC(c1ccccc1)c1ccccc1` [Compound 4]: 26%; for `CCNC(=O)NCCc1cccc(Cl)c1` [Compound 5]: 24%; for `CCNC(=O)NCCN1CCCCC1` [Compound 6]: 33%. Same read-out and setting: in the case of `CCNC(=O)Nc1cccc2nsnc12` [Compound 7] it was 25%; in that of `CCNC(=O)Nc1nc2ccccc2s1` [Compound 8], 22%; in that of `CCNC(=O)NN1CCCC1` [Compound 9], 16%.

As to `CCNC(=O)Nc1cccc(OC(F)(F)F)c1` [Compound 10], the inhibition at 1000 µM came to 30%. Regarding `CCNC(=O)Nc1cc[nH]n1` [Compound 11], the inhibition at 1000 µM amounted to 35%. For the molecule `CCNC(=O)NC(C)(C)CC(C)=O` [Compound 12], the inhibition at 1000 µM was 35%. Still for that read-out and setting: in the case of `CCNC(=O)NC1CCN(C(=O)OCC)CC1` [Compound 13] it was 35%; in that of `CCNC(=O)Nc1cccc(S(N)(=O)=O)c1` [Compound 14], 18%. On the same count and under the same terms, the same measure for `CCNC(=O)Nc1c(F)c(F)c(C#N)c(F)c1F` [Compound 15]: 26%; for `CCNC(=O)Nc1ccc(C(N)=O)cc1` [Compound 16]: 27%; for `CCCNCCCNC(=O)NCC` [Compound 17]: 25%. `CCNC(=O)NOC(C)(C)C` [Compound 18]: the inhibition at 1000 µM worked out at 25%. The same measure, in the same setting: in the case of `CCNC(=O)Nc1nc2cc(C)c(C)cc2[nH]1` [Compound 19, 1-(5,6-dimethyl-1H-benzoimidazol-2-yl)-3-ethyl urea] it was 77%; in that of `CCNC(=O)Nc1cnccn1` [Compound 20], 55%; in that of `CCNC(=O)Nc1ncnc2[nH]ncc12` [Compound 21], 95%.

As for `CCNC(=O)Nn1cnnc1` [Compound 22], the inhibition at 1000 µM stood at 19%. Still for that read-out and setting: the same measure for `CCNC(=O)NC(C(=O)OCC)C(=O)OCC` [Compound 23]: 12%. The same measure, in the same setting: the same measure for `C=CCNC(=O)NCC` [Compound 24]: 18%. On to `CCNC(=O)NCC(C)(C)C` [Compound 25], for which the inhibition at 1000 µM is 60%.

The same experiment, now with this note: 96 h, @ 1 mM, Table 2, read-out: Thymidine Uptake (% Reduction @ 1 mM).
Consider `CCNC(=O)NCCCN1CCSCC1` [Compound 26], for which the inhibition at 1000 µM is 16%. Still for that read-out and setting: in the case of `CCNC(=O)NCCCN1CC(C)OC(C)C1` (centres unmarked) [Compound 28] it was 13%; in that of `CCCN(CCCNC(=O)NCC)CC1CC1` [Compound 29], 23%.

Take `CCNC(=O)NCCCN(CCO)Cc1ccccc1` [Compound 30]: the inhibition at 1000 µM worked out at 12%. Same read-out and setting: in the case of `CCNC(=O)NCCCN1CCN(c2cccc(C)c2C)CC1` [Compound 31, 1-{3′-[4-(2,3-xylyl)-piperazin-1-yl]-propyl}-3-ethyl urea] it was 21%; in that of `CCNC(=O)NCCCN1CCN(c2ncc(C(F)(F)F)cc2Cl)CC1` [Compound 32], 27%; in that of `CCNC(=O)NCCCN1CCC(Cc2ccccc2)CC1` [Compound 33], 17%.

In the case of `CCNC(=O)NCCCN1CCc2ccccc2C1Cc1ccccc1` (centres unmarked) [Compound 34], the inhibition at 1000 µM worked out at 12%. On the same count and under the same terms, in the case of `CCNC(=O)NCCCN1CCC(C(=O)c2ccc(Cl)cc2)CC1` [Compound 35] it was 55%.

Consider `CCNC(=O)NCCCN1CCN(c2cc(Cl)ccc2C)CC1` [Compound 36], for which the inhibition at 1000 µM is 18%.

For the molecule `CCNC(=O)NCCCN1CCN(C/C=C\c2ccccc2)CC1` [Compound 37], the inhibition at 1000 µM came to 23%.

As to `CCNC(=O)NCCCN1CCN(c2ccccc2)C(C)C1` (centres unmarked) [Compound 38], the inhibition at 1000 µM was determined as 13%. Consider `CCNC(=O)NCCCN1CCN(c2cc(C)ccc2C)CC1` [Compound 39], for which the inhibition at 1000 µM was 23%.

The experiment is the same for the next values; noted with them: 96 h, @ 1 mM, Table 3, read-out: Thymidine Uptake (% Reduction @ 1 mM).
`CN(C)CCCNC(=O)NCC12CCC3CC(CC1C3)C2` (centres unmarked) [Compound 40]: the inhibition at 1000 µM amounted to 20%.

Turning to `CN(C)CCCNC(=O)NCCCCO` [Compound 41], the inhibition at 1000 µM came out at 12%. In the case of `COc1ccccc1CNC(=O)NCCCN(C)C` [Compound 43], the inhibition at 1000 µM is 24%. The same measure, in the same setting: in the case of `CN(C)CCCNC(=O)NCCC(c1ccccc1)c1ccccc1` [Compound 44] it was 21%. As for `CN(C)CCCNC(=O)NC1Cc2ccccc2C1` [Compound 45], the inhibition at 1000 µM came to 20%. Take `CN(C)CCCNC(=O)NCc1ccccc1Cl` [Compound 46]: the inhibition at 1000 µM stood at 21%. Still for that read-out and setting: in the case of `COc1ccc(CNC(=O)NCCCN(C)C)c(OC)c1` [Compound 47] it was 20%; in that of `CN(C)CCCNC(=O)NCCc1cccc(Cl)c1` [Compound 48], 26%; in that of `CN(C)CCCNC(=O)Nc1nccc2ccccc12` [Compound 49], 36%. Regarding `CN(C)CCCNC(=O)Nc1ncc([N+](=O)[O-])s1` [Compound 50], the inhibition at 1000 µM came out at 22%.

As for `CN(C)CCCNC(=O)Nc1ncnc2[nH]ncc12` [Compound 51], the inhibition at 1000 µM came out at 86%. The same measure, in the same setting: in the case of `CN(C)CCCNC(=O)Nc1nnn[nH]1` [Compound 52] it was 14%; in that of `COCCCNC(=O)NCCCN(C)C` [Compound 53], 26%; in that of `CN(C)CCCNC(=O)NCc1csc2ccccc12` [Compound 54], 16%. The same measure, in the same setting: in the case of `CN(C)CCCNC(=O)NCCc1cccs1` [Compound 55] it was 17%.

For a further experiment, the system named is Distal colitis induced by DNBS. Put plainly: Inflammatory Bowel Disease: DNBS-induced distal colitis in rats. Format: in vivo. Conditions: rat, PO 300 mg/kg × 7. The method, then:
CM Hogaboam et al., Eur. J. Pharmacol.; 309; 261 (1996) Groups of 3 derived-male, overnight-fasted rats weighing 150±10 g are used. Distal colitis is induced by intra-colonic instillation of 0.5 ml/rat of DNBS (2,4-dinitrobenzene sulfonic acid, 60 mg/ml in ethanol 30%) after which air (2 ml) is gently injected through the cannula to ensure that the solution remains in the colon. […] The animals are sacrificed 24 hours after the final dose of test compound administration and each colon is removed and weighed.
For the molecule `O=C(O)c1cc(/N=N/c2ccc(S(=O)(=O)Nc3ccccn3)cc2)ccc1O` [Sulfasalazine, reference compound], the “Ave. (colon to 100 g body weight ratio)” value turned out to be 0.551.

The same experiment, now with this note: rat, PO × 7.
As to `O=C(O)c1cc(/N=N/c2ccc(S(=O)(=O)Nc3ccccn3)cc2)ccc1O` [Sulfasalazine, reference compound], the “Inhibition (of net increase of colon to 100 g body weight ratio, relative to vehicle with DNBS)” value turned out to be 41% and the “Net Inc. (net increase of colon to 100 g body weight ratio)” value was found to be 0.254.

The next experiment deals with Septic Shock, Lipopolysaccharide. Put plainly: Septic Shock, Lipopolysaccharide plus galactosamine in mice. Format: in vivo, C57/BL mice. Particulars: 1 mg/kg PO dose. The method, then:
Groups of 4 or 6 C57/BL mice weighing 18–20g were used. […] The blank control group was only applied 10% cremophor/10% ethanol IP and without LPS challenge. Mortality is recorded every 12 hours after challenge over a 3-day period. Protection of mortality by 50 percent or more (≧50%) indicates significant activity.
For `CC(=O)OCC(=O)[C@@]1(O)[C@H](C)C[C@H]2[C@@H]3CCC4=CC(=O)C=C[C@]4(C)[C@@]3(F)[C@@H](O)C[C@@]21C` [Dexamethasone-21-acetate, reference compound], the “Inhibition (protection of mortality)” value came out at 100%.

The experiment is the same for the next values; noted with them: 1 mg/kg PO dose, N 4, 3-day period.
Regarding `CC(=O)OCC(=O)[C@@]1(O)[C@H](C)C[C@H]2[C@@H]3CCC4=CC(=O)C=C[C@]4(C)[C@@]3(F)[C@@H](O)C[C@@]21C` [Dexamethasone-21-acetate, reference compound], the “Total Deaths” value was found to be 0.

The subject of the next experiment is Autoimmune Encephalomyelitis (EAE). As to the kind of experiment: Autoimmune Encephalomyelitis (EAE) model, PLP 139-151 immunized mice. Format: in vivo, SJL/J mice. Particulars: 25 mg/kg daily day 1 to 16, FIG. 1.
For `CCNC(=O)NCCCN1CCN(c2cccc(C)c2C)CC1` [Compound 57, 1-{3′-[4-(2,3-xylyl)-piperazin-1-yl]-propyl}-3-ethyl urea], the “effect on disease onset (ADSS)” value is “had an effect on disease onset” and the “effect on maximum severity (ADSS)” value is on record as “not on maximum severity”.
